How the values were obtained:
Assay type in all cases: physicochemical
[1] = Modulated differential scanning calorimetry (mDSC/DSC) of amorphous tigecycline; conditions: unstressed sample; for glass transition temperature (Tg): mDSC, 25° C. to 300° C. at 3° C./min
Experimental: The DSC apparatus used was a DSC Q200 from TA Instruments, using the following settings: method—from 25° C. to 300° C. at 3° C./min; modulate +/−0.50° C. every 40 seconds. In addition to a higher Tg value, spray dried tigecycline also crystallizes and melts (after crossing the glass transition) at higher temperature than lyophilized tigecycline. By Tg we mean the critical temperature at which the material changes its behaviour from being ‘glassy’ to being ‘rubbery’. ‘Glassy’ in this context means hard and brittle (and therefore relatively easy to break), while ‘rubbery’ means elastic and flexible.

[2] = DSC after fast stress conditions (oven at 100° C. for 24 hours); conditions: after 24 hours at 100° C.
Experimental: The DSC apparatus used was a DSC Q200 from TA Instruments, using the following settings: method—from 25° C. to 300° C. at 3° C./min; modulate +/−0.50° C. every 40 seconds. Spray dried tigecycline and lyophilized tigecycline were submitted to fast stress conditions by placing the samples in an oven at 100° C. for 24 hours. The reversible and total flow DSC curves for the stressed samples were then measured and the results are presented in FIG. 4 and FIG. 5 respectively.

[3] = Dynamic Vapour Sorption (DVS) water uptake; conditions: 25° C.
Experimental: We also have performed Dynamic Vapour Sorption studies (DVS) and these studies have shown that samples of tigecycline isolated by spray drying and by lyophilzation have distinctive hygroscopic behavior. […] The DVS conditions were as follows: temperature-25° C.; equilibrium criteria 0.00% w/w every 10 min; maximum equilibrium time—120 min; start RH—5%; maximum RH—95%; steps—10%. A vapor sorption analyzer (VTI-SGA 100) was used. […] The difference in the water uptake between the two forms increases with RH for most of the isotherm. By RH we mean relative humidity, the amount of water vapor that exists in a gaseous mixture of air and water. At 45% humidity, the spray dried sample takes up 2.9% w/w water and lyophilized sample 3.9% w/w water. At 95% humidity, the difference is even more evident: the spray dried form takes up 22.6% w/w water and the lyophilized form 24.5% w/w water. The form obtained by lyophilization is more hygroscopic than the form obtained by spray drying.

| Structure (SMILES) | glass transition temperature (Tg) ([1]; listed as amorphous compound of formula [1] obtained by spray drying) [°C] | crystallisation temperature ([1]; total heat flow DSC) [°C] | crystallization temperature after stress [2] [°C] | glass transition temperature after stress [2] [°C] | water uptake ([3]; 45% humidity, listed as spray dried sample) [% w/w] | water uptake ([3]; 95% humidity, listed as spray dried form) [% w/w] | glass transition temperature (Tg) ([1]; listed as lyophilized compound of formula [1]) [°C] | water uptake ([3]; 45% humidity, listed as lyophilized sample) [% w/w] | water uptake ([3]; 95% humidity, listed as lyophilized form) [% w/w] |
| --- | --- | --- | --- | --- | --- | --- | --- | --- | --- |
| CN(C)c1cc(NC(=O)CNC(C)(C)C)c(O)c2c1C[C@H]1C[C@H]3[C@H](N(C)C)C(O)=C(C(N)=O)C(=O)[C@@]3(O)C(O)=C1C2=O [spray dried tigecycline, tigecycline] | 129 | ≥ 146 | ≥ 154 | ≥ 143 | 2.9 | 22.6 | – | – | – |
| CN(C)c1cc(NC(=O)CNC(C)(C)C)c(O)c2c1C[C@H]1C[C@H]3[C@H](N(C)C)C(O)=C(C(N)=O)C(=O)[C@@]3(O)C(O)=C1C2=O [lyophilized tigecycline, tigecycline] | – | – | – | – | – | – | 126 | 3.9 | 24.5 |

Reference: US9187410B2, “Process for isolating tigecycline and tigecycline made therefrom” (Hovione Inter Limited, priority 2009, dated 2015)
